Experiments:
[1] = Drug level in Sprague-Dawley rat plasma treated with 2-((4-((2'-chloro-[1,1'-biphenyl]-3-yl)methoxy)phenyl)sulfonyl)acetic acid at 10 mg/kg, po measured up to 24 hrs post dose by LC-PDA-MS/MS analysis; format: ADME, organism-based; details: in vivo
[2] = biological target: T1, Free fatty acid receptor 1 (Homo sapiens, UniProt O14842); experiment: Agonist activity at human FFA1 receptor expressed in CHO cells assessed as increase in intracellular calcium flux by Fluo 4AM dye-based FLIPR assay; format: functional, cell-based
[3] = biological target: T1, Free fatty acid receptor 1; experiment: Agonist activity at human FFA1 receptor expressed in CHO cells assessed as increase in intracellular calcium flux at 10 uM by Fluo 4AM dye-based FLIPR assay relative to TAK-875; format: functional, cell-based
[4] = Octanol/phosphate buffer distribution coefficient, log D of the compound at 100 uM at pH 7.4 after 24 hrs by shake flask method; format: physicochemical
HepG2 = experiment: Apoptotic cytotoxicity in human HepG2 cells assessed as caspase-3/7 activity at 30 uM after 24 hrs by caspase-glo-3/7 assay relative to staurosporine; format: cell-based; details: hepg2, 24 h
[5] = Clearance in fasted Sprague-Dawley rat at 10 mg/kg, po administered as single dose measured up to 24 hrs post dose by LC-PDA-MS/MS analysis; format: ADME, organism-based; details: in vivo
[6] = Cmax in fasted Sprague-Dawley rat at 10 mg/kg, po administered as single dose measured up to 24 hrs post dose by LC-PDA-MS/MS analysis; format: ADME, organism-based; parameters: dose 10 mg/kg, route oral; details: in vivo
[7] = AUC (0 to 24 hrs) in fasted Sprague-Dawley rat at 10 mg/kg, po administered as single dose measured up to 24 hrs post dose by LC-PDA-MS/MS analysis; format: ADME, organism-based; parameters: time < 24 hr, dose 10 mg/kg, route oral; details: in vivo
[8] = Half life in fasted Sprague-Dawley rat at 10 mg/kg, po administered as single dose measured up to 24 hrs post dose by LC-PDA-MS/MS analysis; format: ADME, organism-based; details: in vivo

T1 sequence (O14842 whole entry): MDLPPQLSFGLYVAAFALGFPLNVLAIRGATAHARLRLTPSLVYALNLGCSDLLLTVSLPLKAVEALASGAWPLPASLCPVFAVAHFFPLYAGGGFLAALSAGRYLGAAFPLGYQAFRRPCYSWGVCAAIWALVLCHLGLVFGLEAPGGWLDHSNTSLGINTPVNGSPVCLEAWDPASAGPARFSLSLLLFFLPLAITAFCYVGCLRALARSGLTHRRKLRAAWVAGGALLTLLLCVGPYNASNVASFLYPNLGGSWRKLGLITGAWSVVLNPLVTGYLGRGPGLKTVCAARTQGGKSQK

Row | SMILES | Drug metabolism [1] | EC50 [2] | Efficacy [3] | logD at 24 h, 100 µM [4] | Activity (HepG2) | CL/F [5] | Cmax [6] | AUC(0-t) at 24 h [7] | half-life [8]
1 | O=C(CS(=O)(=O)c1ccc(OCc2cccc(-c3ccccc3Cl)c2)cc1)O[C@@H]1O[C@H](CO)[C@@H](O)[C@H](O)[C@H]1O | Metabolite_Detected |  |  |  |  |  |  |  | 
2 | COc1cc(C)c(-c2cccc(COc3ccc(S(=O)(=O)CC(=O)O)cc3)c2)c(C)c1 |  | 57.5 nM | 106% | 2.45 | -2.4% |  |  |  | 
3 | Cc1ccc(-c2cccc(COc3ccc(S(=O)(=O)CC(=O)O)cc3)c2)c(Cl)c1 |  | 36.3 nM | 112% | 3.05 | 17.6% |  |  |  | 
4 | CCOc1cc(C)c(-c2cccc(COc3ccc(S(=O)(=O)CC(=O)O)cc3)c2)c(C)c1 |  | 63.1 nM | 107% | 2.86 | 6.7% |  |  |  | 
5 | Cc1cc(OCC(C)C)cc(C)c1-c1cccc(COc2ccc(S(=O)(=O)CC(=O)O)cc2)c1 |  | 95.5 nM | 96% | 3.94 |  |  |  |  | 
6 | Cc1ccccc1-c1cccc(COc2ccc(S(=O)(=O)CC(=O)O)cc2)c1 |  | 46.8 nM | 113% | 2.35 | -2.7% |  |  |  | 
7 | CCCOc1cc(C)c(-c2cccc(COc3ccc(S(=O)(=O)CC(=O)O)cc3)c2)c(C)c1 |  | 69.2 nM | 104% | 3.58 | 29.5% |  |  |  | 
8 | CCOc1ccc(-c2cccc(COc3ccc(S(=O)(=O)CC(=O)O)cc3)c2)c(Cl)c1 |  | 51.3 nM | 105% | 3.12 | 26.9% |  |  |  | 
9 | Cc1cccc(C)c1-c1cccc(COc2ccc(S(=O)(=O)CC(=O)O)cc2)c1 |  | 66.1 nM | 103% | 2.49 | -1.5% |  |  |  | 
10 | Cc1cc(OCCCS(C)(=O)=O)cc(C)c1-c1cccc(COc2ccc(CCC(=O)O)cc2)c1 |  | 15.5 nM | 116% | 3.75 | 46.8% | 118 mL/min/kg | 517 ng/mL | 1020 ng·h/mL | 1.09 h
11 | Cc1cc(OCC2CC2)cc(C)c1-c1cccc(COc2ccc(S(=O)(=O)CC(=O)O)cc2)c1 |  | 79.4 nM | 98% | 3.46 | 26.3% |  |  |  | 
12 | O=C(O)c1cccc(-c2ccccc2Cl)c1 | Metabolite_Detected |  |  |  |  |  |  |  | 
13 | O=C(O)CS(=O)(=O)c1ccc(OCc2cccc(-c3ccccc3C(F)(F)F)c2)cc1 |  | 52.5 nM | 108% | 2.95 | 12.5% |  |  |  | 
14 | O=C(CS(=O)(=O)c1ccc(OCc2cccc(-c3ccccc3Cl)c2)cc1)NCCS(=O)(=O)O | Metabolite_Detected |  |  |  |  |  |  |  | 
15 | O=C(O)CS(=O)(=O)c1ccc(OCc2cccc(-c3ccccc3)c2)cc1 |  | 288 nM | 94% | 2.13 | -1.9% |  |  |  | 
